According to patent US11141444B2, “Lactobacillus crispatus KBL693 strain and use thereof” (KO Biolabs, Inc., priority 2018, dated 2021):

System: RBL-2H3 cells
Test: Inhibition of degranulation (β-hexosaminidase co-secreted with histamine) in RBL-2H3 cells
Format: cell-based
Conditions: RBL-2H3, IgE + DNP-HAS induced degranulation; 120 μL culture supernatant or ketotifen 20 μg/mL; negative control (Siraganian buffer) = 1.0
Description: It has been reported that, in an allergic reaction, histamine is expressed in tissues, causing an inflammatory reaction, and suppressing histamine secretion leads to alleviation of allergic symptoms by blocking the reaction by histamine. The present invention attempted to select probiotic strains that can show effects on the alleviation and treatment of allergic reactions through inhibition of histamine secretion. To this end, a total of eight Lactobacillus strains derived from human vagina were evaluated for the ability to suppress histamine secretion. […]
To identify the activity of β-hexosaminidase, 25 μL of the supernatant collected in Example 1-3 was transferred to each well of a 96-well plate, and then 25 μL of each substrate (p-nitrophenyl N-acetyl-D-[…]) was added thereto, and followed by a reaction at 37° C. in the 5% CO2 incubator for 90 minutes. Then, 200 μL of stop solution (Na2CO3/NaHCO3) was added to stop the reaction and then absorbance was measured at 405 nm. The absorbance when treated with each type of Lactobacillus crispatus was compared to the negative control group and converted to percentage to show the level of inhibition of the degranulation.

SMILES: CN1CCC(=C2c3ccccc3CC(=O)c3sccc32)CC1 [Ketotifen, ketotifen]
- β-hexosaminidase (fold change): 0.2569 fold change
